Counter-ions that a name gives are not always drawn.
What was measured:
Format in all cases: biochemical
[1] = molecular target: T1, recombinant human Lysyl Oxidase-Like 2 (LOXL2) (Homo sapiens, UniProt Q9Y4K0); assay: Amplex Red HRP-coupled amine oxidase assay, recombinant human LOXL2; conditions: 60 min incubation with enzyme at 37° C., putrescine substrate, read-out: Inhibitory activity (IC50, nM) human LOXL2
T1 construct: purchased R&D systems
T1 sequence (Q9Y4K0 26-774): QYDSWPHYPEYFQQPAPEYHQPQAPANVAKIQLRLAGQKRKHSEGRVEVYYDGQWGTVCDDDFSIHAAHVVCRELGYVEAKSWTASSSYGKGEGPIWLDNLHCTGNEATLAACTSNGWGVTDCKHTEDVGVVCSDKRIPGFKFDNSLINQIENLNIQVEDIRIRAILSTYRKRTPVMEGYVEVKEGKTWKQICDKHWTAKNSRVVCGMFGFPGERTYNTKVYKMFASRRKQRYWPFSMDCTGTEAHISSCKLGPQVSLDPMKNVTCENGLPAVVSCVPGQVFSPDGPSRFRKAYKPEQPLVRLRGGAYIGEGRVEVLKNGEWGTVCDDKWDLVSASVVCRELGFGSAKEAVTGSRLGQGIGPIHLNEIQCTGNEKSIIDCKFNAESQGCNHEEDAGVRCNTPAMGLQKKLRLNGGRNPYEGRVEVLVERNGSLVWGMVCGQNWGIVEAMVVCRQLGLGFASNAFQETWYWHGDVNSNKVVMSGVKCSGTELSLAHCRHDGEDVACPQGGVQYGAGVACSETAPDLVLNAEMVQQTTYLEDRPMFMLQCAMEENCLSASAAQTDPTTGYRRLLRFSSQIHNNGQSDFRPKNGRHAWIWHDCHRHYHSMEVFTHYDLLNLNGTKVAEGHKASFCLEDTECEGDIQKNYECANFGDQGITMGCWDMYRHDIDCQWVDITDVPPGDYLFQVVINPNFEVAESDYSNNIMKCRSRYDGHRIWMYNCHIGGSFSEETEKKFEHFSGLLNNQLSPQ
Procedure: (§1) The activities of the compounds according to the present invention against recombinant human Lysyl Oxidase-Like 2 (recombinant human LOXL2, R&D systems) were evaluated by measuring the levels of hydrogen peroxide in the HRP (horseradish peroxidase) coupled reactions, with the Amplex Red Hydrogen Peroxide Assay Kit (Molecular Probes, Invitrogen, USA). The tests were carried out at 37° C., and putrescine was used as a substrate. In the HRP coupling reaction, the oxidation of 10-acetyl-3,7-dihydroxyphenoxazine (Amplex Red reagent) by hydrogen peroxide generates a fluorescent product, i.e., resorufin. Briefly, the test compounds were dissolved in dimethyl sulfoxide (DMSO) at a concentration of 20 mM. Dose-response measurements were carried out by serial dilutions in DMSO to generate a six-point curve. The upper concentration was adjusted according to the potency of the compound, and then diluted with the reaction buffer to obtain a final DMSO concentration of 1%. Purified human LOXL2 in 50 mM sodium phosphate buffer (pH7.4) was added to each well of a 96 well black plate. The test compounds dissolved in DMSO were incubated with the human LOXL2 enzyme at 37° C. for 60 minutes. After the incubation for 60 minutes, a reaction mixture containing 400 μM Amplex Red reagent, 30 mM putrescine, and 2 U/mL HRP in 50 mM sodium phosphate buffer (pH 7.4) was added to each well. Fluorescence was measured with a microplate reader (Flexstation3, Molecular Devices), under the conditions of excitation at 530 nm and emission at 590 nm, 1 hour after the addition of the mixture. Inhibition by each compound was measured as % reduction in signal, compared to the control without an inhibitor (diluted DMSO only). The data were fixed to a four-variable logistic model, and […] values were calculated using the GraphPad Prism program.

[2] = molecular target: T2, recombinant human MAO-B (monoamine oxidase-B) (Homo sapiens, UniProt P27338); assay: Amplex Red HRP-coupled amine oxidase assay, recombinant human MAO-B; conditions: 1 mM benzylamine substrate, read-out: Inhibitory activity (IC50, nM) MAO-B
T2 construct: purchased Sigma-Aldrich
T2 sequence (P27338 1-520): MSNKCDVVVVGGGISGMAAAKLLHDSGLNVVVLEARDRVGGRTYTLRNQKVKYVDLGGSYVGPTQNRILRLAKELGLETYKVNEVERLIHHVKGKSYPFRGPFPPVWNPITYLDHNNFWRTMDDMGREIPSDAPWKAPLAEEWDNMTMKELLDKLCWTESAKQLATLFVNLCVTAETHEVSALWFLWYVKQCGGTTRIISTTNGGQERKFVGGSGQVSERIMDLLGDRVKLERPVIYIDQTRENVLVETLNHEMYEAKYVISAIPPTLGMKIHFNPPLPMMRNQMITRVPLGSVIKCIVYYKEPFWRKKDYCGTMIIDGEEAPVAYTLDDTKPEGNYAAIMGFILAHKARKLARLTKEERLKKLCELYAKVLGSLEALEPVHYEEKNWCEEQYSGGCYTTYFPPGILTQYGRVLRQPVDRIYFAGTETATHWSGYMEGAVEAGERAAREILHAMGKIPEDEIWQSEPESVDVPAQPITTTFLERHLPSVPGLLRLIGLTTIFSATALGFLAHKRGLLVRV
Procedure: as §1
(§2) And, the activities of the compounds according to the present invention against recombinant human MAO-A (monoamine oxidase-A, Sigma-Aldrich) and recombinant human MAO-B (monoamine oxidase-B, Sigma-Aldrich) were evaluated in a similar manner to the activity evaluation method for recombinant human LOXL2, using 0.5 mM tyramine and 1 mM benzylamine as a substrate, respectively. In addition, the activities of the compounds according to the present invention against recombinant human DAO (diamine oxidase, R&D systems) were evaluated in a similar manner to the activity evaluation method for recombinant human LOXL2, using 1 mM putrescine as a substrate.

[3] = molecular target: T3, recombinant human DAO (diamine oxidase) (Homo sapiens, UniProt P19801); assay: Amplex Red HRP-coupled amine oxidase assay, recombinant human DAO; conditions: 1 mM putrescine substrate, read-out: Inhibitory activity (IC50, nM) DAO
T3 construct: purchased R&D systems
T3 sequence (P19801 20-751): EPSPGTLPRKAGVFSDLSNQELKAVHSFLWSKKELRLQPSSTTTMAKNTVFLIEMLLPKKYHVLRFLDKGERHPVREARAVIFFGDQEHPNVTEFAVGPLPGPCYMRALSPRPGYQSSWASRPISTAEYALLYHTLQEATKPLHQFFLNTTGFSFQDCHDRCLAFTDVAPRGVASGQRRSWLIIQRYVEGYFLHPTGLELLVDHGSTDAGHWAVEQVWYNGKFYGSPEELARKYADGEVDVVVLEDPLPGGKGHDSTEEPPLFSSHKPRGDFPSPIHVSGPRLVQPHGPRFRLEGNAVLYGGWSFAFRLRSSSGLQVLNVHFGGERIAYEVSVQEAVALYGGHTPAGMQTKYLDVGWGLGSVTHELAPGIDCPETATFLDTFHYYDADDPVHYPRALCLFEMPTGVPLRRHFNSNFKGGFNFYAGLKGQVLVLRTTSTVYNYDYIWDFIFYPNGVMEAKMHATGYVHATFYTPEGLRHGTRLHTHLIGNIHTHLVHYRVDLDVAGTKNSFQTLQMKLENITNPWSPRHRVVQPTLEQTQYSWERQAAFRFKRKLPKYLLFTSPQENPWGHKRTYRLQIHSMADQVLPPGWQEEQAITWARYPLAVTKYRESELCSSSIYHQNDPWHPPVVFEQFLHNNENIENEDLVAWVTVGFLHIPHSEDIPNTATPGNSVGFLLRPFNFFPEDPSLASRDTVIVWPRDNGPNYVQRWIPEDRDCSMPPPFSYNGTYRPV
Procedure: as §1, §2

[4] = molecular target: T4, recombinant human MAO-A (monoamine oxidase-A) (Homo sapiens, UniProt P21397); assay: Amplex Red HRP-coupled amine oxidase assay, recombinant human MAO-A; conditions: 0.5 mM tyramine substrate, read-out: Inhibitory activity (IC50, nM) MAO-A
T4 construct: purchased Sigma-Aldrich
T4 sequence (P21397 1-527): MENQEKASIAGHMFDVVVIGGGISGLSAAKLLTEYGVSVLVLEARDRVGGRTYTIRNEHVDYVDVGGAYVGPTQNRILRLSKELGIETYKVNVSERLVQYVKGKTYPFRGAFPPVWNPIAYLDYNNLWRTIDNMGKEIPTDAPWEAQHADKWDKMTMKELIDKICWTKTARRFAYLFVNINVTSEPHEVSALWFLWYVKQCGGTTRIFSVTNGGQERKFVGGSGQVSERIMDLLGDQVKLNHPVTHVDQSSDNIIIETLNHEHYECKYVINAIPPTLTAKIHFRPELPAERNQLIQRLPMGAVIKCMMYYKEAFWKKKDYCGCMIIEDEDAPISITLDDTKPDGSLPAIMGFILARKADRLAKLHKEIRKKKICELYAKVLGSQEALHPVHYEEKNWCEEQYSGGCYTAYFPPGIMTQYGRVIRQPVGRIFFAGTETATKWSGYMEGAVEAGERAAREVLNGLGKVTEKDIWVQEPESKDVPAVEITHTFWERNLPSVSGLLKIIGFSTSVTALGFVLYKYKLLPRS
Procedure: as §1, §2

Compound | IC50 [1] [nM] | IC50 [2] [nM] | IC50 [3] [nM] | IC50 [4] [nM]
COC(=O)c1cc(-c2cc(S(=O)(=O)NC3CC3)ccc2OC)c2nnn(C/C(F)=C/CN)c2c1 [Example 120, methyl (Z)-1-(4-amino-2-fluorobut-2-en-1-yl)-4-(5-(N-cyclopropylsulfamoyl)-2-methoxyphenyl)-1H-benzo[d][1,2,3]triazol-6-carboxylate hydrochloride] | 17.1 | 97000 | 2830 | –
CN(C)S(=O)(=O)c1cccc(-c2cc(C(F)(F)F)cc3c2nnn3C/C(F)=C/CN)c1 [Example 196, (Z)-3-(1-(4-amino-2-fluorobut-2-en-1-yl)-6-(trifluoromethyl)-1H-benzo[d][1,2,3]triazol-4-yl)—N,N-dimethylbenzenesulfonamide hydrochloride] | 34 | – | 3150 | –
Cn1nccc1-c1cc(C#N)cc2c1ncn2C/C(F)=C/CN [Example 191, (Z)-1-(4-amino-2-fluorobut-2-en-1-yl)-4-(1-methyl-1H-pyrazol-5-yl)-1H-benzo[d]imidazol-6-carbonitrile hydrochloride] | 95.5 | > 100000 | – | > 100000
CCn1nccc1-c1cc(C#N)cc2c1ncn2C/C(F)=C/CN [Example 192, (Z)-1-(4-amino-2-fluorobut-2-en-1-yl)-4-(1-ethyl-1H-pyrazol-5-yl)-1H-benzo[d]imidazol-6-carbonitrile hydrochloride] | 137 | > 100000 | – | > 100000
CN(C)S(=O)(=O)c1cccc(-c2cc(C#N)cc3c2ncn3C/C(F)=C/CN)c1 [Example 182, (Z)-3-(1-(4-amino-2-fluorobut-2-en-1-yl)-6-cyano-1H-benzo[d]imidazol-4-yl)-N,N-dimethylbenzenesulfonamide hydrochloride] | 28.7 | > 100000 | – | > 100000
N#Cc1cc(-c2cncnc2)c2nnn(C/C(F)=C/CN)c2c1 [Example 210, (Z)-1-(4-amino-2-fluorobut-2-en-1-yl)-4-(pyrimidin-5-yl)-1H-benzo[d][1,2,3]triazol-6-carbo nitrile hydrochloride] | 264 | – | 432 | –
N#Cc1cc(-c2cccc(CO)c2Cl)c2nnn(C/C(F)=C/CN)c2c1 [Example 207, (Z)-1-(4-amino-2-fluorobut-2-en-1-yl)-4-[2-chloro-3-(hydroxymethyl)phenyl-1H-benzo[d][1,2,3]triazol-6-carbonitrile hydrochloride] | 281 | – | 7440 | –
N#Cc1cc(-c2cc(CO)ccc2F)c2nnn(C/C(F)=C/CN)c2c1 [Example 206, (Z)-1-(4-amino-2-fluorobut-2-en-1-yl)-4-[2-fluoro-5-(hydroxymethyl)phenyl]-1H-benzo[d][1,2,3]triazol-6-carbonitrile hydrochloride] | 200 | – | 1960 | –
Cn1nccc1-c1cc(C#N)cc2c1nnn2C/C(F)=C/CN [Example 211, (Z)-1-(4-amino-2-fluorobut-2-en-1-yl)-4-(1-methyl-1H-pyrazol-5-yl)-1H-benzo[d][1,2,3]triazol-6-carbonitrile hydrochloride] | 350 | – | 1730 | –
NC/C=C(\F)Cn1nnc2c(-c3cccc(S(=O)(=O)NC4CC4)c3)cccc21 [Example 110, (Z)-3-(1-(4-amino-2-fluorobut-2-en-1-yl)-1H-benzo[d][1,2,3]triazol-4-yl)-N-cyclopropylbenzenesulfonamide hydrochloride] | 60 | – | – | –
COC(=O)c1cc(-c2cccc(S(=O)(=O)N3CCC(F)(F)C3)c2)c2nnn(C/C(F)=C/CN)c2c1 [Example 115, methyl (Z)-1-(4-amino-2-fluorobut-2-en-1-yl)-4-(3-((3,3-difluoropyrrolidin-1-yl)sulfonyl)phenyl)-1H-benzo[d][1,2,3]triazol-6-carboxylate hydrochloride] | 58.7 | – | – | –
CNS(=O)(=O)c1ccc(OC)c(-c2cc(C(=O)NOC)cc3c2nnn3C/C(F)=C/CN)c1 [Example 134, (Z)-1-(4-amino-2-fluorobut-2-en-1-yl)-N-methoxy-4-(2-methoxy-5-(N-methylsulfamoyl)phenyl)-1H-benzo[d][1,2,3]triazol-6-carboxamide hydrochloride] | 8 | – | – | –

— patent US12686665B2, “Bicyclic fused ring derivative or salt thereof and pharmaceutical composition comprising same” (YUHAN CORPORATION, priority 2021, dated 2026)
